Measurements taken from patent publication US9556139B2, “6-substituted phenoxychroman carboxylic acid derivatives” (Array BioPharma Inc., priority 2008, dated 2017).
Like-named read-outs stand apart in the source and are kept apart here.

Biological target: human DP2 (Homo sapiens (Human), UniProt Q9Y5Y4)
Assay: DP-2 Binding Inhibition Assay (3H-PGD2 binding to membranes of K562 cells expressing DP2)
Conditions: for EC50: inhibition of 3H-PGD2 binding; for relative activity of the enantiomers in the DP2 binding inhibition assay: assay described in Example A
How it was run: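 Radioligand filtration binding: ³H-PGD2 displacement from DP2-expressing K562 cell membranes, 60 min, room temperature, pH 7.4, under 0.1% BSA, 1% HSA or 4% HSA.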

[1] = read-out: EC50 (nM) 4% HSA, 4% HSA

human DP2, sequence (Q9Y5Y4 whole entry): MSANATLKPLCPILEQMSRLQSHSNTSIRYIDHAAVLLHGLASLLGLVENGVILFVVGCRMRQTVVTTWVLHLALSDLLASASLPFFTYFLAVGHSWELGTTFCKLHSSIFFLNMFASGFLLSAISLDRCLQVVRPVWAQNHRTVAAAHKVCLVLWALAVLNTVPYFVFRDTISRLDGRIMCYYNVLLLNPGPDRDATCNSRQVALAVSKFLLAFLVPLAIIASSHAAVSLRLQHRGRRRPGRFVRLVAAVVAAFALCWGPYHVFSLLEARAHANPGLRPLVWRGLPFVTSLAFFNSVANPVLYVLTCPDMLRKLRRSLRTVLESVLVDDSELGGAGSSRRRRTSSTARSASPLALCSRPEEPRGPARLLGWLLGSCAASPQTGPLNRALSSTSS

Compound	EC50 [1]	also measured
COc1ccc(CCNC(=O)c2ccc(Oc3cc4c(cc3Cl)C(C(=O)O)CCO4)cc2)cc1 (stereo not drawn) [Example 140, Sodium 6-chloro-7-(4-(4-methoxyphenethylcarbamoyl)phenoxy)chroman-4-carboxylate]	498 nM	
O=C(NCCc1ccc(Cl)c(Cl)c1)c1ccc(Oc2cc3c(cc2Cl)C(C(=O)O)CCO3)cc1 (stereo not drawn) [Example 138, Sodium 6-chloro-7-(4-(3,4-dichlorophenethylcarbamoyl)phenoxy)chroman-4-carboxylate]	239 nM	
O=C(NCCc1cc(F)ccc1Oc1ccc(Cl)c(Cl)c1)c1ccc(Oc2cc3c(cc2Cl)C(C(=O)O)CCO3)cc1 (stereo not drawn) [Example 212, sodium 6-chloro-7-(4-(2-(3,4-dichlorophenoxy)-5-fluorophenethylcarbamoyl)phenoxy)chroman-4-carboxylate]	81.5 nM	
C[C@@H](CNC(=O)c1ccc(Oc2cc3c(cc2C#N)C(C(=O)O)CCO3)cc1)c1ccccc1 (stereo partly drawn) [Example 130, 6-Cyano-7-(4-((R)-2-phenylpropylcarbamoyl)phenoxy)chroman-4-carboxylic acid]		EC50 (read-out: EC50 (Nm) 1% HSA, 1% HSA): 25.7 nM
O=C(NCCc1ccccc1Cl)c1ccc(Oc2cc3c(cc2Cl)C(C(=O)O)CCO3)cc1 (stereo not drawn) [Example 79, Sodium 6-chloro-7-(4-(2-chlorophenethylcarbamoyl)phenoxy)chroman-4-carboxylate]	98.9 nM	
CN(C)Cc1ccc(CCNC(=O)c2ccc(Oc3cc4c(cc3C#N)C(C(=O)O)CCO4)cc2)cc1 (stereo not drawn) [Example 44, 6-Cyano-7-(4-(4-((dimethylamino)methyl)phenethylcarbamoyl)phenoxy)chroman-4-carboxylic acid]	3480 nM	
O=C(NCC1CCc2cc(Cl)ccc21)c1ccc(Oc2cc3c(cc2Cl)C(C(=O)O)CCO3)cc1 (stereo not drawn) [Example 231, 6-chloro-7-(4-((5-chloro-2,3-dihydro-1H-inden-1-yl)methylcarbamoyl)phenoxy) chroman-4-carboxylic acid]	225 nM	
CC(C)(C)c1cccc(NC(=O)c2ccc(Oc3cc4c(cc3C#N)C(C(=O)O)CCO4)cc2)c1 (stereo not drawn) [Example 134, 7-(4-(3-tert-Butylphenylcarbamoyl)phenoxy)-6-cyanochroman-4-carboxylic acid]	112 nM	
O=C(NC1CCCC(c2ccccc2)C1)c1ccc(Oc2cc3c(cc2Cl)C(C(=O)O)CCO3)cc1 (stereo not drawn) [Example 158, 6-Chloro-7-(4-(3-phenylcyclohexylcarbamoyl)phenoxy)chroman-4-carboxylic acid]	1650 nM	
COC(CNC(=O)c1ccc(Oc2cc3c(cc2Cl)C(C(=O)O)CCO3)cc1)c1ccc(Cl)cc1 (stereo not drawn) [Example 188, Sodium 6-chloro-7-(4-(2-(4-chlorophenyl)-2-methoxyethylcarbamoyl)phenoxy)chroman-4-carboxylate]	759 nM	
O=C(NCCc1ccc2c(c1)OCO2)c1ccc(Oc2cc3c(cc2Cl)C(C(=O)O)CCO3)cc1 (stereo not drawn) [Example 110, Sodium 7-(4-(2-(benzo[d][1,3]dioxol-5-yl)ethylcarbamoyl)phenoxy)-6-chlorochroman-4-carboxylate]	607 nM	
O=C(NC1CCN(c2ccc(Cl)cc2Cl)CC1)c1ccc(Oc2cc3c(cc2Cl)C(C(=O)O)CCO3)cc1 (stereo not drawn) [Example 124, Sodium 6-chloro-7-(4-(1-(2,4-dichlorophenyl)piperidin-4-ylcarbamoyl)phenoxy)chroman-4-carboxylate]	841 nM	
O=C(NCCc1ccc(-c2ccccc2)cc1Cl)c1ccc(Oc2cc3c(cc2Cl)C(C(=O)O)CCO3)cc1 (stereo not drawn) [Example 31, Sodium 6-chloro-7-(4-(2-(3-chlorobiphenyl-4-yl)ethylcarbamoyl)phenoxy)chroman-4-carboxylate]	91.4 nM	
O=C(NCC(F)(F)c1ccc(Cl)cc1)c1ccc(Oc2cc3c(cc2Cl)C(C(=O)O)CCO3)cc1 (stereo not drawn) [Example 195, sodium 6-chloro-7-(4-(2-(4-chlorophenyl)-2,2-difluoroethylcarbamoyl)phenoxy)chroman-4-carboxylate]	1150 nM	
O=C(NC1CCC(c2cccc(F)c2)C1)c1ccc(Oc2cc3c(cc2Cl)C(C(=O)O)CCO3)cc1 (stereo not drawn) [Example 171, Sodium 6-chloro-7-(4-(3-(3-fluorophenyl)cyclopentylcarbamoyl)phenoxy)chroman-4-carboxylate]	333 nM	
O=C(NCCOc1ccccc1)c1ccc(Oc2cc3c(cc2Cl)C(C(=O)O)CCO3)cc1 (stereo not drawn) [Example 220, 6-chloro-7-(4-(2-phenoxyethylcarbamoyl)phenoxy)chroman-4-carboxylic acid]	> 2000 nM	
CC(C)(C)Oc1ccccc1CCNC(=O)c1ccc(Oc2cc3c(cc2Cl)C(C(=O)O)CCO3)cc1 (stereo not drawn) [Example 116, Sodium 7-(4-(2-tert-butoxyphenethylcarbamoyl)phenoxy)-6-chlorochroman-4-carboxylate]	304 nM	
O=C(NCC(O)c1ccc(Cl)cc1Cl)c1ccc(Oc2cc3c(cc2Cl)C(C(=O)O)CCO3)cc1 (stereo not drawn) [Example 197, sodium 6-chloro-7-(4-(2-(2,4-dichlorophenyl)-2-hydroxyethylcarbamoyl)phenoxy)chroman-4-carboxylate]	689 nM	
O=C(NC1CCC(c2ccccc2)C1)c1ccc(Oc2cc3c(cc2Cl)C(C(=O)O)CCO3)cc1 (stereo not drawn) [Example 165, 6-chloro-7-(4-(3-phenylcyclopentylcarbamoyl)phenoxy)chroman-4-carboxylic acid]	401 nM	
O=C(NCC/C=C\c1ccccc1Cl)c1ccc(Oc2cc3c(cc2Cl)C(C(=O)O)CCO3)cc1 (stereo not drawn) [Example 16, Sodium (Z)-6-chloro-7-(4-(4-(2-chlorophenyl)but-3-enylcarbamoyl)phenoxy)chroman-4-carboxylate]	318 nM	
O=C(NCCc1ccc(Cl)cc1)c1ccc(Oc2cc3c(cc2Cl)C(C(=O)O)CCO3)cc1 (single isomer, unassigned) [Example 11 Enantiomer 2, 6-Chloro-7-(4-(4-chlorophenethylcarbamoyl)phenoxy)chroman-4-carboxylic acid]		EC50 (EC50 (Nm) 1% HSA, 1% HSA): 9.3 nM; EC50 (EC50 (nM) 4% HSA, 4% HSA): 111 nM; relative activity of the enantiomers in the DP2 binding inhibition assay: more potent DP2 binding enantiomer
O=C(NCCOc1ccccc1Cl)c1ccc(Oc2cc3c(cc2Cl)C(C(=O)O)CCO3)cc1 (stereo not drawn) [Example 115, Sodium 6-chloro-7-(4-(2-(2-chlorophenoxyl)ethylcarbamoyl)phenoxy)chroman-4-carboxylate]	2440 nM	
COc1ccc(Br)cc1CCNC(=O)c1ccc(Oc2cc3c(cc2Cl)C(C(=O)O)CCO3)cc1 (stereo not drawn) [Example 90, Sodium 7-(4-(5-bromo-2-methoxyphenethylcarbamoyl)phenoxy)-6-chlorochroman-4-carboxylate]	153 nM	
N#Cc1cc2c(cc1Oc1ccc(C(=O)Nc3ccc(-c4ccccc4)cc3)cc1)OCCC2C(=O)O (stereo not drawn) [Example 68, 7-(4-(Biphenyl-4-ylcarbamoyl)phenoxy)-6-cyanochroman-4-carboxylic acid]	206 nM	
CSc1cc(Cl)ccc1CCNC(=O)c1ccc(Oc2cc3c(cc2Cl)C(C(=O)O)CCO3)cc1 (stereo not drawn) [Example 229, 6-chloro-7-(4-(4-chloro-2-(methylthio)phenethylcarbamoyl)phenoxy)chroman-4-carboxylic acid]	67.5 nM	
O=C(NCCc1ccc(F)cc1F)c1ccc(Oc2cc3c(cc2Cl)C(C(=O)O)CCO3)cc1 (stereo not drawn) [Example 81, Sodium 6-chloro-7-(4-(2,4-difluorophenethylcarbamoyl)phenoxy)chroman-4-carboxylate]	191 nM	
COc1cc(C2CC2)ccc1CCNC(=O)c1ccc(Oc2cc3c(cc2Cl)C(C(=O)O)CCO3)cc1 (single isomer, unassigned) [235 Enantiomer 1, 6-chloro-7-(4-(4-cyclopropyl-2-methoxyphenethylcarbamoyl)phenoxy)chroman-4-carboxylic acid]		EC50 (EC50 (nM) 4% HSA, 4% HSA): > 5000 nM; relative activity of the enantiomers in the DP2 binding inhibition assay: less active than the sodium salt of Enantiomer 2
O=C(NCCc1ccc(Cl)cc1Br)c1ccc(Oc2cc3c(cc2Cl)C(C(=O)O)CCO3)cc1 (stereo not drawn) [Example 32, Sodium 7-(4-(2-bromo-4-chlorophenethylcarbamoyl)phenoxy)-6-chlorochroman-4-carboxylate]	88 nM	
COc1ccc(C2CCCC(NC(=O)c3ccc(Oc4cc5c(cc4Cl)C(C(=O)O)CCO5)cc3)C2)cc1 (stereo not drawn) [Example 161, 6-Chloro-7-(4-(3-(4-methoxyphenyl)cyclohexylcarbamoyl)phenoxy)chroman-4-carboxylic acid]	1120 nM	
O=C(NCCc1ccccc1Br)c1ccc(Oc2cc3c(cc2Cl)C(C(=O)O)CCO3)cc1 (stereo not drawn) [Example 91, Sodium 7-(4-(2-bromophenethylcarbamoyl)phenoxy)-6-chlorochroman-4-carboxylate]	192 nM	
